Where two headings read alike, the source gives them in different places. Values belong to the compound of their own block, whether it stands above or below them.
Assays:
rTRPM8 [1] = target: T1, rTRPM8 (Rattus norvegicus, UniProt Q8R455); set-up: method as in PMID 32843690; details: reference antagonist value; ref [31]; read-out: rTRPM8 IC50, Ca2+ microfluorography; cited from earlier work
T1 construct: expressed in transfected cells

rTRPM8 [2] = target: T1, rTRPM8; assay: Ca2+ microfluorography assay, HEK293 cells expressing rTRPM8, menthol activation; type: cell-based; details: HEK293-rTRPM8, 100 μM menthol
Method: This represents a similar activity as β–lactam 2 and a somewhat higher potency than the model TRPM8 antagonists AMTB.
To measure the effect of the compounds against TRPM8 activity we used microfluorometry-based calcium flux assays with Fluo-4 NW Ca^2+ dye and fluorescence as described in [30]. Briefly, human embryonic kidney cell line (HEK293) cells stably transfected with rTRPM8 or hTRPM8 were seeded in 96-well plates at a cell density of 30,000 cells. After 2 days the medium was replaced with 100 μL of the dye, Fluo-4 NW, loading solution supplemented with probenecid 2.5 mM and incubated 1 h at 37 °C. The TRPM8 activity was measured using POLASTAR plate reader (BMG Labtech) setting the excitation wavelength at 485 nm and the emission wavelength at 520 nm. The baseline fluorescence was recorded for 3 cycles before the addition of vehicle compound at different concentrations and the antagonist, 10 μM AMTB. Fluorescence intensity was recorded during 7 more cycles and 100 μM menthol was added. Fluorescence intensity was recorded during 10 more cycles.
Data analysis: The Z-factor was calculated in each assay using the following equation: […]. In all the experiments, the Z-factor was ≥0.5. The effect of the compounds against TRPM8 activity was determined by normalizing their effect on the maximum fluorescence observed after application of 100 μM menthol. Decrease in menthol signal was expressed as percentage of inhibition (%). All data are expressed as the mean ± standard deviation (SD). Data are expressed as the concentration exerting a half-maximal inhibition of agonist-induced [Ca^2+]i elevation (IC50), which was calculated again using GraphPad Prism® software. All determinations were performed in triplicate (n = 3) in 3 independent experiments (N = 3).

[3] = test system: OXA-induced cold hypersensitivity in male mice; set-up: method as in PMID 32843690; details: ref [31]; cited from earlier work
rTRPM8 [4] = target: T1, rTRPM8; assay: Whole-cell patch-clamp, HEK293-rTRPM8 cells; type: cell-based; details: HEK293-rTRPM8, 100 μM menthol, holding voltage −60 mV
Method: To confirm the antagonistic activity, electrophysiology (patch-clamp) studies were performed on HEK293 cells expressing the rTRPM8 channel. […] Then, using a holding voltage of −60 mV, different concentrations of RGM8-51 were used to establish the concentration/response curve for rTRPM8 current blockade.
Whole-cell patch-clamp recordings from HEK293-rTRPM8 cells were carried out 2 days after seeding on 12 mm Ø glass coverslips treated with poly-L-lysine solution (Sigma Aldrich, Spain); the intracellular pipette solution contained (in mM) 150 NaCl, 5 EGTA, 3 MgCl2 and 10 HEPES, adjusted to pH 7.2 with NaOH, and the extracellular solution contained (in mM) 150 NaCl, 6 CsCl, 1.5 CaCl2, 1 MgCl2, 10 D-glucose and 10 HEPES, adjusted to pH 7.4 with NaOH. The TRPM8 activity was measured by the application of two pulses of 100 μM menthol in a time interval of 2 min and a 30 s perfusion of the different compound concentrations before the second menthol pulse.
Data were sampled at 10 kHz (EPC10 amplifier with PatchMaster 2.53 software, HEKA Electronics, Lambrecht, Germany) and low-pass filtered at 3 kHz for analysis (PatchMaster 2.53 and GraphPad Prism 6.0, Graphpad Software, San Diego, CA, USA). The series resistance was <10 MΩ and to minimize voltage errors was compensated by 60–80%. […] Cell capacitance was measured and used to estimate the current density (J, pA/pF).
Data analysis: For the whole-cell patch-clamp experiments, results are expressed as the percentage of remaining activation of the TRPM8 channel. This is calculated by normalizing the ratio (p2/p1) of testing conditions to the ratio (p2/p1) of the control condition. […] All data are expressed as the mean ± standard error of the mean (SEM) (n = 5–8). In the current-clamp experiments, the change in membrane potential is expressed as the difference between the resting membrane potential and the membrane potential after the addition of a stimuli. Data were analyzed as previously described (GraphPad 6.0, one-way ANOVA followed by Bonferroni multiple comparisons test, and ROUT method, Q = 10%).

CACO-2 cell monolayers = assay: Caco-2 permeability; type: in vitro ADME; details: CACO-2 cell monolayer
Method: These studies were subcontracted to Eurofins-CEREP or Eurofins-PANLABS. Briefly, agonists and antagonist assays were performed in cell cultures overexpressing the corresponding channel (CHO: TRPV1 and TRPA1; HEK293: TRPV3 and ASIC3). In vitro pharmacology, cellular channel functional assays: the compound was prepared in assay buffer to the final concentration, 10 μM. The compound wells, reference agonist and background vehicle controls were prepared in DMSO at 0.3%. The reference agonist for each Ion Channel assayed was prepared in a similar manner to serve as the assay control. The reference agonist for each Ion Channel was included at Emax (the concentration where the reference agonist elicited a maximal response). The agonist assay was conducted on fluorimeter instruments where the test compound, vehicle controls, and reference agonist were added to the assay plate after a fluorescence baseline was established. The agonist assay was used to assess each compound’s ability to activate each Ion Channel assayed. For the antagonist assay, the compound was pre-incubated for five minutes at room temperature, and then challenged with the EC80 concentration of the reference agonist after establishment of a fluorescence baseline. Vehicle controls and EC80 concentration of reference agonist were added to appropriate wells. The antagonist assay was used to assess each compound’s ability to inhibit activation by the corresponding Ion Channel agonist. ASIC3 ionflux antagonist assay: all recordings were obtained from a holding potential of -60 mV. The compound addition sequence was as follows: one addition of pH5.5 buffer was added to establish the baseline response, the test concentration of compound was applied for 30 s, followed by the addition of pH5.5 of compound for 2 s. Binding assays were performed in CHO cell cultures overexpressing human CGRPR, CB2 and M2 receptors. RGM8-51 (10 μM) was tested, and reference compounds used as control agonists and antagonists are detailed in Table 2, footnote. Binding assay results are expressed as a percent of control specific binding. […] Aqueous solubility (μM) was determined by comparing the peak area of the principal peak in a calibration standard (200 μM) containing organic solvent (methanol/water, 60/40, v/v) with the peak area of the corresponding peak in a buffer sample. Partition coefficient: the total amount of compound was determined as the peak area of the principal peak in a calibration standard (100 μM) containing organic solvent (methanol/water, 60/40, v/v). The amount of compound in buffer was determined as the combined, volume-corrected, and weighted areas of the corresponding peaks in the aqueous phases of three organic-aqueous samples of different composition. An automated weighting system was used to ensure the preferred use of raw data from those samples with well quantifiable peak signals. The amount of compound in organic phase was calculated by subtraction. Subsequently, Log D was calculated as the Log10 of the amount of compound in the organic phase divided by the amount of compound in the aqueous phase. […] Permeability was measured in CACO-2 monolayers. Percentage of compounds in the receptors wells was measured using HPLC. […] In vitro metabolism was measured in human liver microsomes. […] The apparent intrinsic clearance (CLint, in μL/min/mg) was calculated from the half-life time.

serum proteins = assay: Protein binding; type: in vitro ADME, human

T1 sequence (Q8R455 whole entry): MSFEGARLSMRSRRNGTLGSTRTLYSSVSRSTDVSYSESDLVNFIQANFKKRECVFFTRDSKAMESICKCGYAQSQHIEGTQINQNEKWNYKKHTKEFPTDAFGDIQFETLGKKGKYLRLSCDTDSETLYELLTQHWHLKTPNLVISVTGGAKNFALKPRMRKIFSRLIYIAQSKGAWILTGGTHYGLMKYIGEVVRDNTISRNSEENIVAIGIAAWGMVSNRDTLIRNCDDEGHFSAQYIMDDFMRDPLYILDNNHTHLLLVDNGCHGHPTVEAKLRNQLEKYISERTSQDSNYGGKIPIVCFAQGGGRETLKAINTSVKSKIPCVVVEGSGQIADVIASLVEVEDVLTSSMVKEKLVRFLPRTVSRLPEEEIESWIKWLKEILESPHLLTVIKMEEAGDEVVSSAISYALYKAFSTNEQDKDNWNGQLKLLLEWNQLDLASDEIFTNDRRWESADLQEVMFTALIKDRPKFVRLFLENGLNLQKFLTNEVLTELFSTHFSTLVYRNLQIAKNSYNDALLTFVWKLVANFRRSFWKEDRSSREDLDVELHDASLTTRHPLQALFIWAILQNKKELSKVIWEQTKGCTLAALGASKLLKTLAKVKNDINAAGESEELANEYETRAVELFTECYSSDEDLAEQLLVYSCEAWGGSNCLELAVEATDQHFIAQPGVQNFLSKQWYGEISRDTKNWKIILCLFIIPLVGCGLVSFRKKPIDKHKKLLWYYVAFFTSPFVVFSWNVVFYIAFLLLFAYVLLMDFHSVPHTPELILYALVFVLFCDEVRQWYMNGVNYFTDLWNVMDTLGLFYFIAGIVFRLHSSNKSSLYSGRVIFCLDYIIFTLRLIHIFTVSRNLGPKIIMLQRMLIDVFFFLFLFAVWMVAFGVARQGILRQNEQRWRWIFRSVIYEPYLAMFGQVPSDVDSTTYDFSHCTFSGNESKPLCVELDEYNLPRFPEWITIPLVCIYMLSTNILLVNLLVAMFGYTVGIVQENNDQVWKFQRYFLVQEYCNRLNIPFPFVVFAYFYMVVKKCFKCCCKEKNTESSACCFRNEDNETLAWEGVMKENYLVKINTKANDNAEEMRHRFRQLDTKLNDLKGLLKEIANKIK

Compound: Cc1cccc(COc2ccccc2C(=O)N(CCCN)Cc2cccs2)c1 [AMTB]
IC50 (rTRPM8 [1]): 7.3 ± 1.5 µM

IC50 (rTRPM8 [2]): 3.1 ± 1.1 µM
IC50 (rTRPM8 [4]): 0.9 ± 1 µM
Compound: C[C@@H]1C(=O)N(C[C@H](Cc2ccccc2)NC(=O)OCc2ccccc2)[C@]1(Cc1ccccc1)C(=O)OCc1ccccc1 [Compound 2, reference compound]
relief of oxaliplatin-induced cold hypersensitivity [3]: significant activity

Permeability B-A (%) (CACO-2 cell monolayers): 74%
Permeability A-B (%) (CACO-2 cell monolayers; percentage of compound in the acceptor cell): 70%
Compound: CC(C)NCC(O)COc1cccc2ccccc12 (stereo not shown) [Propanolol, reference compound]

Binding to proteins (%) (serum proteins): 99%
Compound: CC(=O)CC(c1ccccc1)c1c(O)c2ccccc2oc1=O (stereo not shown) [Warfarin, reference compound]
